Entries after “also recorded” stand apart in the source; their conditions may differ.

One assay relates to CTD110.6 antibody. As to the kind of experiment: CTD110.6 antibody binding on glycopeptide microarrays.
The subject of assay [1] is Wheat Germ Agglutinin (WGA). As to the kind of experiment: Lectin binding on microarray. Particulars: control glycans on the GP1 array; TSM binding buffer pH 7.4, 1 hr, room temperature.

As for `CC(=O)N[C@H]1C(O)O[C@H](CO)[C@@H](O)[C@@H]1O` (stereo partly drawn) [GlcNAc], the “effect of free GlcNAc on CTD110.6 binding (hapten competition)” value in the assay on CTD110.6 antibody (GP1 array, 20 mM GlcNAc) is recorded as “completely abolished”.

On to `CC(=O)N[C@H]1C(O)O[C@H](CO)[C@H](O)[C@@H]1O` (stereo partly drawn) [GalNAc], for which, in the assay with CTD110.6 antibody (GP2 array printed at 100 μM, 20 mM GalNAc), the “effect of free GalNAc on CTD110.6 non-specific binding (hapten)” value is on record as “specificity can be restored; also recorded: can be prevented”.

Turning to chitin, in assay [1], the “binding of WGA to control glycans” value is given as “exhibited lectin binding with WGA”.

(Values after publication PMC7556346 (Cell chemical biology, 2020).)
